Where a name gives a salt, the structure may show the parent alone.

For the first assay, the system named is Ralstonia solanacearum MN R.s1 strain. The assay is classed as in vivo. Conditions: tomato seedlings, leaf cutting with scissors soaked in agent + R.s suspension, 7 d at 30° C.
Consider neophytomycin [Positive control group], for which the Mortality/% is 16.67%.

Staying with this assay, now noted: tomato seedlings, leaf cutting, relative to negative control.
As to neophytomycin [Positive control group], the Relative control effect/% came to 81.01%.

Another assay relates to Ralstonia solanacearum R.s (MN R.s1). The assay is classed as in vivo. As to conditions: tomato seedlings, roots soaked 10 min, R.s irrigated after 7 d.
neophytomycin [Positive control group] came in with a Control effect/% of 37.30%, a Disease index/% of 14.00% and a Morbidity/% of 16.70%.

For the next assay, the system named is M173.
Details: not given
In the case of `O=[N+]([O-])c1c(Cl)c(Cl)c(Cl)c(Cl)c1Cl` [Quintozene], the Compatibility entry was “Compatible”.
For the compound `O=P([O-])(O)O.[K+]`, the Compatibility entry is on record as “Compatible”.
For `COC(=O)Nc1nc2ccccc2[nH]1` [Carbendazim], the Compatibility entry is listed as “Compatible”.
`N.N.O=S(=O)(O)O` [Ammonium sulfate]: the Compatibility entry is listed as “Compatible”.
Regarding `CN/C(=N/CC1CCOC1)N[N+](=O)[O-]` (stereo not shown) [Dinotefuran], the Compatibility result is reported as “Compatible”.
Turning to `NC(N)=O` [Urea], the Compatibility result is given as “Compatible”.
Still for that read-out and setting: the entry for `CC1(C)[C@H](C(=O)O[C@H](C#N)c2cccc(Oc3ccccc3)c2)[C@@H]1/C=C(\Cl)C(F)(F)F` [Gamma-cyhalothrin] is “Compatible”; for `O=[N+]([O-])c1cc(C(F)(F)F)c(Cl)c([N+](=O)[O-])c1Nc1ncc(C(F)(F)F)cc1Cl` [Fluazinam] it is “Compatible”.
On to `CN(C)C(=S)SSC(=S)N(C)C` [Thiram], for which the Compatibility entry is recorded as “Compatible”.
On to `N#Cc1c(Cl)c(Cl)c(Cl)c(C#N)c1Cl` [Chlorothalonil], for which the Compatibility result is given as “Compatible”.
Turning to `COCC(=O)N(c1c(C)cccc1C)[C@H](C)C(=O)OC` [Metalaxyl-M], the Compatibility result is recorded as “Compatible”.
With `CCCOC(=O)NCCCN(C)C` [Propamocarb hydrochloride], the Compatibility result is “Compatible”.
As to `CCO[PH](=O)O` [Fosetyl-aluminum], the Compatibility result is “Compatible”.
Turning to `CN1COCN(Cc2cnc(Cl)s2)/C1=N\[N+](=O)[O-]` [Thiamethoxam], the Compatibility result was “Compatible”.

The values above are taken from patent publication US12648569B2 (priority 2022, dated 2026).
